Earlier results as cited in patent publication US12180499B2, “Compositions and methods for impeding transcription of expanded microsatellite repeats” (University of Florida Research Foundation, Inc., priority 2016, dated 2024).
Starred links: 1 amine or outer side, 2 acyl side, 3 side chain; linkers in the order of their positions; H or OH if unused. Positions of bridges follow the written chain, without caps; N, C: chain ends. Non-standard residues stand in square brackets, D forms with d. Residues, ends and D or L forms follow the SMILES beside them. Chains are numbered I, II in the order given. Actinocin(9to1) = Cc1c2oc3c(C)ccc(C(=O)[*:1])c3nc-2c(C(=O)[*:2])c(N)c1=O; NMeV = CN[C@H](C(=O)O)C(C)C; Sar = CNCC(=O)O

Tested on: expanded CTG repeats
Conditions: low nanomolar doses; cited from earlier work

Cc1c2oc3c(C)ccc(C(=O)N[C@@H]4C(=O)N[C@H](C(C)C)C(=O)N5CCC[C@H]5C(=O)N(C)CC(=O)N(C)[C@@H](C(C)C)C(=O)O[C@@H]4C)c3nc-2c(C(=O)N[C@@H]2C(=O)N[C@H](C(C)C)C(=O)N3CCC[C@H]3C(=O)N(C)CC(=O)N(C)[C@@H](C(C)C)C(=O)O[C@@H]2C)c(N)c1=O [actinomycin D] (I: T[dV]P[Sar][NMeV] / II: T[dV]P[Sar][NMeV]; ester I:1-I:C, II:1-II:C; linker I:N-II:N via Actinocin(9to1))
transcription of expanded CTG repeats: preferentially impede transcription of expanded CTG repeats
